Assay results: US20240208992A1, “MACROCYCLES AS CFTR MODULATORS” (Idorsia Pharmaceuticals Ltd, priority 2021, published 2024)

Molecular target: human F508del-CFTR (Homo sapiens, UniProt P13569, DEL508-508)
Test: F508del-CFTR cell surface expression (corrector activity), DiscoveRx ß-galactosidase complementation chemiluminescence assay in recombinant U2OS cell line;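 also: U2OS cells co-expressing ProLink-tagged F508del-CFTR and a membrane-anchored enzyme acceptor, where more surface CFTR restores β-galactosidase activity measured by chemiluminescence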
Settings: for EC50: EC50, F508del-CFTR cell surface expression, U2OS cells, 16h compound incubation, geomean values; for Emax: U2OS, in relation to Emax of corrector lumacaftor (=100%), arithmetic mean values

Sequence of human F508del-CFTR (P13569 with tags, fused parts or gaps DEL508-508): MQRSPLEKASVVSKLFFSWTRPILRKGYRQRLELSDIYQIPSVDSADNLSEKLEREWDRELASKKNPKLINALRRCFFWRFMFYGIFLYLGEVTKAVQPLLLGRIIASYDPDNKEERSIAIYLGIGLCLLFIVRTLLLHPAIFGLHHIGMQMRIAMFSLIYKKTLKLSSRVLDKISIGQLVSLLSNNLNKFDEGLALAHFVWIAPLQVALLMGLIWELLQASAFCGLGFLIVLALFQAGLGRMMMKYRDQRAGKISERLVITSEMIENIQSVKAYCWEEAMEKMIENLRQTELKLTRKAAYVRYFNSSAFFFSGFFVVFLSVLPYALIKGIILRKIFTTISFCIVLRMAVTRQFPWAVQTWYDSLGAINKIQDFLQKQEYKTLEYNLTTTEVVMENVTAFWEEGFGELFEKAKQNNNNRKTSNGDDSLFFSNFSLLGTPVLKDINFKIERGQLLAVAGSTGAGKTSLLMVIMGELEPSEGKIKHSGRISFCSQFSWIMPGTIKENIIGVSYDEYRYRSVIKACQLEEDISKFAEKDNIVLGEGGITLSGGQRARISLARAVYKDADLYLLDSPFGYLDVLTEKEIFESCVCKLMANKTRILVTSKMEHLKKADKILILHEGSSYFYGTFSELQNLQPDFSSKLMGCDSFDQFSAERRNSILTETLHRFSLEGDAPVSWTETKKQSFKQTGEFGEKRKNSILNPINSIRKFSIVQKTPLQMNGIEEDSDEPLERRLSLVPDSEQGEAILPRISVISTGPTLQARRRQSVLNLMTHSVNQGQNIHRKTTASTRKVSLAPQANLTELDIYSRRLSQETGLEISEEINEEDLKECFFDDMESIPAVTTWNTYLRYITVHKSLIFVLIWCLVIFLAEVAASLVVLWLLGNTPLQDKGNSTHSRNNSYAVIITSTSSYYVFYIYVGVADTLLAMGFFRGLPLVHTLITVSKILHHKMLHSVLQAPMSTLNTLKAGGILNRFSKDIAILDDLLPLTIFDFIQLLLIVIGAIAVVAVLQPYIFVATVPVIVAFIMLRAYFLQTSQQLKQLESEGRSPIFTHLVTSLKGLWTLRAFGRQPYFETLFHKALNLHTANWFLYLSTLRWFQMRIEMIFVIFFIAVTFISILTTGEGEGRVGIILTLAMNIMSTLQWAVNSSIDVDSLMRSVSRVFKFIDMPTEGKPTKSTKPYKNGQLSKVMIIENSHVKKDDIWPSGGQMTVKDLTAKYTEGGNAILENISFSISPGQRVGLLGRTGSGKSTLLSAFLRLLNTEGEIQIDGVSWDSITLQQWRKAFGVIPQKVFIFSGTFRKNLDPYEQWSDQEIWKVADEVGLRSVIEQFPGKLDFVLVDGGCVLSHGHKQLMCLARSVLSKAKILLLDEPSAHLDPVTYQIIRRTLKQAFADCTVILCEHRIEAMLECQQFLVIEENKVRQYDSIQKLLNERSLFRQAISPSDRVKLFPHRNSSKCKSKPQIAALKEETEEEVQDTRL

SMILES	EC50 [nM]	Emax [%]
COc1nccc2c1C(=O)N[C@H](C(=O)NCCc1cc(C3CC3)no1)CC(=O)N(C)[C@@H](CC(C)C)C(=O)N1CCC(F)(F)C[C@@H]1C(=O)N[C@H](Cc1ccccc1)CO2 [Example 663, (7S,11S,17aR,20R)-20-benzyl-N-(2-(3-cyclopropylisoxazol-5-yl)ethyl)-16,16-difluoro-11-isobutyl-4-methoxy-10-methyl-5,9,12,18-tetraoxo-5,6,7,8,9,10,11,12,15,16,17,17a,18,19,20,21-hexadecahydro-14H-dipyrido[2,1-f:3′,4′-p][1]oxa[4,7,10,14]tetraazacycloheptadecine-7-carboxamide]	801	210
[2H]C([2H])([2H])Oc1nc(C)cc2c1C(=O)N[C@H](C(=O)NCCc1noc(C3CC3)n1)CC(=O)N(C)[C@@H](CC(C)C)C(=O)N1CCCC[C@@H]1C(=O)N[C@H](Cc1ccccc1)CO2 [Example 666, (7S,11S,17aR,20R)-20-benzyl-N-(2-(5-cyclopropyl-1,2,4-oxadiazol-3-yl)ethyl)-11-isobutyl-4-(methoxy-d3)-2,10-dimethyl-5,9,12,18-tetraoxo-5,6,7,8,9,10,11,12,15,16,17,17a,18,19,20,21-hexadecahydro-14H-dipyrido[2,1-f:3′,4′-p][1]oxa[4,7,10,14]tetraazacycloheptadecine-7-carboxamide]	484	311
COc1nc(C)cc2c1C(=O)N[C@H](C(=O)NCCc1cc(C(F)(F)F)no1)CC(=O)N(C)[C@@H](CC(C)C)C(=O)N1CCCC[C@H]1C(=O)N[C@H](Cc1ccccc1)CO2 [Example 667, (7S,11S,17aS,20R)-20-benzyl-11-isobutyl-4-methoxy-2,10-dimethyl-5,9,12,18-tetraoxo-N-(2-(3-(trifluoromethyl)isoxazol-5-yl)ethyl)-5,6,7,8,9,10,11,12,15,16,17,17a,18,19,20,21-hexadecahydro-14H-dipyrido[2,1-f:3′,4′-p][1]oxa[4,7,10,14]tetraazacycloheptadecine-7-carboxamide]	764	149
COc1nccc2c1C(=O)N[C@H](C(=O)NCCc1cc(C3CC3)no1)CC(=O)N(C)[C@@H](CC(C)C)C(=O)N1CC[C@H](c3ccccc3)C[C@H]1C(=O)N[C@H](Cc1ccccc1)CO2 [Example 670, (7S,11S,17aS,20R)-20-benzyl-N-(2-(3-cyclopropylisoxazol-5-yl)ethyl)-11-isobutyl-4-methoxy-10-methyl-5,9,12,18-tetraoxo-16-phenyl-5,6,7,8,9,10,11,12,15,16,17,17a,18,19,20,21-hexadecahydro-14H-dipyrido[2,1-f:3′,4′-p][1]oxa[4,7,10,14]tetraazacycloheptadecine-7-carboxamide]	353	167
COc1nccc2c1C(=O)N[C@H](C(=O)NCCc1cc(C)no1)CC(=O)N(C)[C@@H](CC(C)C)C(=O)N1Cc3ccccc3C[C@@H]1C(=O)N[C@H](Cc1ccccc1)CO2 [Example 678, (7S,11S,19aR,22R)-22-benzyl-11-isobutyl-4-methoxy-10-methyl-N-(2-(3-methylisoxazol-5-yl)ethyl)-5,9,12,20-tetraoxo-5,6,7,8,9,10,11,12,19,19a,20,21,22,23-tetradecahydro-14H-pyrido[3′,4′:16,17][1]oxa[4,7,10,14]tetraazacycloheptadecino[7,6-b]isoquinoline-7-carboxamide]	355	296
COc1nccc2c1C(=O)N[C@H](C(=O)NCCc1cc(C)no1)CC(=O)N(C)[C@@H](CC(C)C)C(=O)N1CCc3ccccc3[C@@H]1C(=O)N[C@H](Cc1ccccc1)CO2 [Example 679, (7S,11S,19bR,22R)-22-benzyl-11-isobutyl-4-methoxy-10-methyl-N-(2-(3-methylisoxazol-5-yl)ethyl)-5,9,12,20-tetraoxo-5,6,7,8,9,10,11,12,15,19b,20,21,22,23-tetradecahydro-14H-pyrido[3′,4′:16,17][1]oxa[4,7,10,14]tetraazacycloheptadecino[6,7-a]isoquinoline-7-carboxamide]	869	277
COc1cccc(CCNC(=O)[C@@H]2CC(=O)N(C)[C@@H](CC(C)C)C(=O)N(C)[C@H](C)C(=O)N[C@H](Cc3ccccc3)COc3cnc4ccccc4c3C(=O)N2)c1 [Example 680, (3S,7S,10R,13R)-13-benzyl-7-isobutyl-N-(3-methoxyphenethyl)-6,9,10-trimethyl-1,5,8,11-tetraoxo-1,2,3,4,5,6,7,8,9,10,11,12,13,14-tetradecahydro-[1]oxa[4,7,10,14]tetraazacycloheptadecino[17,16-c]quinoline-3-carboxamide]	448	340

Now those with a lower EC50, led by results:

EC50 [nM]	Emax [%]	SMILES
231	291	[2H]C([2H])([2H])Oc1nc(C)cc2c1C(=O)N[C@H](C(=O)NCCc1cc(C3CC3)on1)CC(=O)N(C)[C@@H](CC(C)C)C(=O)N1CCCC[C@@H]1C(=O)N[C@H](Cc1ccccc1)CO2 [Example 664, (7S,11S,17aR,20R)-20-benzyl-N-(2-(5-cyclopropylisoxazol-3-yl)ethyl)-11-isobutyl-4-(methoxy-d3)-2,10-dimethyl-5,9,12,18-tetraoxo-5,6,7,8,9,10,11,12,15,16,17,17a,18,19,20,21-hexadecahydro-14H-dipyrido[2,1-f:3′,4′-p][1]oxa[4,7,10,14]tetraazacycloheptadecine-7-carboxamide]
194	159	CC(C)C[C@H]1C(=O)N2CC[C@@H](c3ccccc3)C[C@H]2C(=O)N[C@H](Cc2ccccc2)COc2cnc3ccccc3c2C(=O)N[C@H](C(=O)NCCc2cc(C3CC3)no2)CC(=O)N1C [Example 675, (9S,13S,19aS,22R)-22-benzyl-N-(2-(3-cyclopropylisoxazol-5-yl)ethyl)-13-isobutyl-12-methyl-7,11,14,20-tetraoxo-18-phenyl-7,8,9,10,11,12,13,14,17,18,19,19a,20,21,22,23-hexadecahydro-16H-pyrido[2′,1′:6,7][1]oxa[4,7,10,14]tetraazacycloheptadecino[17,16-c]quinoline-9-carboxamide]
160	330	COc1nccc2c1C(=O)N[C@H](C(=O)NCCc1cc(C3CC3)no1)CC(=O)N(C)[C@@H](CC(C)C)C(=O)N1CCC3(CC3)C[C@@H]1C(=O)N[C@H](Cc1ccccc1)CO2 [Example 668, (7′S,11′S,17a′R,20′R)-20′-benzyl-N-(2-(3-cyclopropylisoxazol-5-yl)ethyl)-11′-isobutyl-4′-methoxy-10′-methyl-5′,9′,12′,18′-tetraoxo-5′,6′,7′,8′,9′,10′,11′,12′,14′,15′,17′,17a′,18′,19′,20′,21′-hexadecahydrospiro[cyclopropane-1,16′-dipyrido[2,1-f:3′,4′-p][1]oxa[4,7,10,14]tetraazacycloheptadecine]-7′-carboxamide]
119	323	CC(C)C[C@H]1C(=O)N2CCCC[C@@H]2C(=O)N[C@H](Cc2ccccc2)COc2cnc3ccc(F)cc3c2C(=O)N[C@H](C(=O)NCCc2cnn(C3CC3)n2)CC(=O)N1C [Example 665, (9S,13S,19aR,22R)-22-benzyl-N-(2-(2-cyclopropyl-2H-1,2,3-triazol-4-yl)ethyl)-5-fluoro-13-isobutyl-12-methyl-7,11,14,20-tetraoxo-7,8,9,10,11,12,13,14,17,18,19,19a,20,21,22,23-hexadecahydro-16H-pyrido[2′,1′:6,7][1]oxa[4,7,10,14]tetraazacycloheptadecino[17,16-c]quinoline-9-carboxamide]
103	312	COc1nccc2c1C(=O)N[C@H](C(=O)NCCc1cc(C3CC3)no1)CC(=O)N(C)[C@@H](CC(C)C)C(=O)N1CC[C@@H](c3ccccc3)C[C@@H]1C(=O)N[C@H](Cc1ccccc1)CO2 [Example 672, (7S,11S,17aR,20R)-20-benzyl-N-(2-(3-cyclopropylisoxazol-5-yl)ethyl)-11-isobutyl-4-methoxy-10-methyl-5,9,12,18-tetraoxo-16-phenyl-5,6,7,8,9,10,11,12,15,16,17,17a,18,19,20,21-hexadecahydro-14H-dipyrido[2,1-f:3′,4′-p][1]oxa[4,7,10,14]tetraazacycloheptadecine-7-carboxamide]
67	314	COc1nccc2c1C(=O)N[C@H](C(=O)NCCc1cc(C3CC3)no1)CC(=O)N(C)[C@@H](CC(C)C)C(=O)N1CC[C@H](c3ccccc3)C[C@@H]1C(=O)N[C@H](Cc1ccccc1)CO2 [Example 673, (7S,11S,17aR,20R)-20-benzyl-N-(2-(3-cyclopropylisoxazol-5-yl)ethyl)-11-isobutyl-4-methoxy-10-methyl-5,9,12,18-tetraoxo-16-phenyl-5,6,7,8,9,10,11,12,15,16,17,17a,18,19,20,21-hexadecahydro-14H-dipyrido[2,1-f:3′,4′-p][1]oxa[4,7,10,14]tetraazacycloheptadecine-7-carboxamide]
62	267	CC(C)C[C@H]1C(=O)N2CC[C@@H](c3ccccc3)C[C@@H]2C(=O)N[C@H](Cc2ccccc2)COc2cnc3ccccc3c2C(=O)N[C@H](C(=O)NCCc2cc(C3CC3)no2)CC(=O)N1C [Example 676, (9S,13S,19aR,22R)-22-benzyl-N-(2-(3-cyclopropylisoxazol-5-yl)ethyl)-13-isobutyl-12-methyl-7,11,14,20-tetraoxo-18-phenyl-7,8,9,10,11,12,13,14,17,18,19,19a,20,21,22,23-hexadecahydro-16H-pyrido[2′,11:6,7][1]oxa[4,7,10,14]tetraazacycloheptadecino[17,16-c]quinoline-9-carboxamide]
37	283	CC(C)C[C@H]1C(=O)N2CC[C@H](c3ccccc3)C[C@@H]2C(=O)N[C@H](Cc2ccccc2)COc2cnc3ccccc3c2C(=O)N[C@H](C(=O)NCCc2cc(C3CC3)no2)CC(=O)N1C [Example 677, (9S,13S,19aR,22R)-22-benzyl-N-(2-(3-cyclopropylisoxazol-5-yl)ethyl)-13-isobutyl-12-methyl-7,11,14,20-tetraoxo-18-phenyl-7,8,9,10,11,12,13,14,17,18,19,19a,20,21,22,23-hexadecahydro-16H-pyrido[2′,1′:6,7][1]oxa[4,7,10,14]tetraazacycloheptadecino[17,16-c]quinoline-9-carboxamide]
